Patent US20020090341A1, “Method” (NYCOMED IMAGING AS, priority 1997, published 2002)
Like-named read-outs stand apart in the source and are kept apart here.

Experiments:
[1] = test system: normal and reperfused infarcted myocardium; conditions: 90 minutes post injection
Procedure: (§1) Sprague-Dawley rats (female, 270-320 g, n=24) were subjected to occlusion of the anterior branch of the left main coronary artery for 60 minutes, followed by reperfusion for 120 minutes before injecting the test agent. A catheter was placed in the tail vein for administration of contrast media. Animals were connected to an ECG patient monitor and placed in the magnet such that the heart of each rat was at or near ioscenter. Magnetic field was optimized for a central slab of 6 mm thickness, within which the 2 mm section to be imaged was located. Inversion and slice select pulses were calibrated. Inversion recovery echo planar imaging was then used to measure baseline T1 values for myocardium and left ventricle chamber blood.
(§2) MnDPDP was then administered at doses of 25, 50 and 100 μmole/kg by intravenous injection of 2.5, 5 and 10 ml/kg, respectively, of the test solution which contained a 10 mM solution of MnDPDP. These injections were followed by a flush of physiologic saline solution (0.9%) such that the combined volumes of test agent and saline flush was 11 ml/kg. All injected solutions were warmed before being administered and were injected slowly over 1.5 mins. T1 values were remeasured at 5 minute intervals during the first 60 minutes after injection. Occasional animals were imaged at 90 minutes for T1 determination (EPI) and for visual inspection of contrast on STIR (short TI inversion recovery) prepared spin echo images.

[2] = test system: normal and reperfused infarcted myocardium; assay: inversion recovery echo planar imaging T1 measurement after coronary occlusion 60 min and reperfusion 120 min
Procedure: as §1, §2
After imaging was completed, animals were sacrificed by an overdose of pentobarbital and the heart was excised, sectioned and stained in triphenyltetrazolium chloride solution to define the infarcted region.

[3] = 25 μmol/kg, 5 min after injection
[4] = 25 μmol/kg, 10 min after injection
[5] = 25 μmol/kg, 15 min after injection
[6] = 25 μmol/kg, 20 min after injection
[7] = 25 μmol/kg, 25 min after injection
[8] = 25 μmol/kg, 30 min after injection
[9] = 25 μmol/kg, 35 min after injection
[10] = 25 μmol/kg, 40 min after injection
[11] = 25 μmol/kg, 45 min after injection
[12] = 25 μmol/kg, 50 min after injection
[13] = 25 μmol/kg, 55 min after injection
[14] = 25 μmol/kg, 60 min after injection
[15] = 50 μmol/kg, 5 min after injection
[16] = 50 μmol/kg, 10 min after injection
[17] = 50 μmol/kg, 15 min after injection
[18] = 50 μmol/kg, 20 min after injection
[19] = 50 μmol/kg, 25 min after injection
[20] = 50 μmol/kg, 30 min after injection
[21] = 50 μmol/kg, 35 min after injection
[22] = 50 μmol/kg, 40 min after injection
[23] = 50 μmol/kg, 45 min after injection
[24] = 50 μmol/kg, 50 min after injection
[25] = 50 μmol/kg, 55 min after injection
[26] = 50 μmol/kg, 60 min after injection
[27] = 100 μmol/kg, 5 min after injection
[28] = 100 μmol/kg, 10 min after injection
[29] = 100 μmol/kg, 15 min after injection
[30] = 100 μmol/kg, 20 min after injection
[31] = 100 μmol/kg, 25 min after injection
[32] = 100 μmol/kg, 30 min after injection
[33] = 100 μmol/kg, 35 min after injection
[34] = 100 μmol/kg, 40 min after injection
[35] = 100 μmol/kg, 45 min after injection
[36] = 100 μmol/kg, 50 min after injection
[37] = 100 μmol/kg, 55 min after injection
[38] = 100 μmol/kg, 60 min after injection

Cc1ncc(COP(=O)(O)O)c(CN(CCN(CC(=O)[O-])Cc2c(COP(=O)(O)O)cnc(C)c2O)CC(=O)[O-])c1O.[Mn+2] [MnDPDP, manganese (II) chelate of N,N′-bis-(pyridoxal-5-phosphate)-ethylenediamine-N,N′-diacetic acid]
SI normal/SI infarct, conventional T1 weighted images ([1]; highest dose): 1.15
SI normal/SI infarct, STIR sequences ([1]; lowest dose): 0.85-1.3
SI normal/SI infarct, conventional T1 weighted images ([1]; lowest dose (n=1)): about 1.25
T1 Blood [2, 3]: 1.04 ± 0.02 s
T1 Infarct [2, 3]: 0.76 ± 0.02 s
T1 normal [2, 3]: 0.77 ± 0.01 s
T1 Blood [2, 4]: 1.11 ± 0.02 s
T1 Infarct [2, 4]: 0.82 ± 0.02 s
T1 normal [2, 4]: 0.76 ± 0.01 s
T1 Blood [2, 5]: 1.14 ± 0.02 s
T1 Infarct [2, 5]: 0.86 ± 0.03 s
T1 normal [2, 5]: 0.75 ± 0.01 s
T1 Blood [2, 6]: 1.16 ± 0.02 s
T1 Infarct [2, 6]: 0.90 ± 0.03 s
T1 normal [2, 6]: 0.73 ± 0.01 s
T1 Blood [2, 7]: 1.18 ± 0.02 s
T1 Infarct [2, 7]: 0.92 ± 0.03 s
T1 normal [2, 7]: 0.72 ± 0.01 s
T1 Blood [2, 8]: 1.18 ± 0.02 s
T1 Infarct [2, 8]: 0.93 ± 0.03 s
T1 normal [2, 8]: 0.70 ± 0.01 s
T1 Blood [2, 9]: 1.19 ± 0.02 s
T1 Infarct [2, 9]: 0.95 ± 0.03 s
T1 normal [2, 9]: 0.70 ± 0.01 s
T1 Blood [2, 10]: 1.20 ± 0.02 s
T1 Infarct [2, 10]: 0.98 ± 0.03 s
T1 normal [2, 10]: 0.69 ± 0.01 s
T1 Blood [2, 11]: 1.21 ± 0.02 s
T1 Infarct [2, 11]: 0.99 ± 0.03 s
T1 normal [2, 11]: 0.68 ± 0.01 s
T1 Blood [2, 12]: 1.22 ± 0.02 s
T1 Infarct [2, 12]: 1.00 ± 0.03 s
T1 normal [2, 12]: 0.67 ± 0.01 s
T1 Blood [2, 13]: 1.22 ± 0.02 s
T1 Infarct [2, 13]: 1.01 ± 0.03 s
T1 normal [2, 13]: 0.67 ± 0.01 s
T1 Blood [2, 14]: 1.23 ± 0.02 s
T1 Infarct [2, 14]: 1.02 ± 0.03 s
T1 normal [2, 14]: 0.65 ± 0.01 s
T1 Blood [2, 15]: 0.84 ± 0.02 s
T1 Infarct [2, 15]: 0.59 ± 0.01 s
T1 normal [2, 15]: 0.69 ± 0.01 s
T1 Blood [2, 16]: 0.93 ± 0.03 s
T1 Infarct [2, 16]: 0.65 ± 0.01 s
T1 normal [2, 16]: 0.68 ± 0.01 s
T1 Blood [2, 17]: 0.97 ± 0.02 s
T1 Infarct [2, 17]: 0.69 ± 0.01 s
T1 normal [2, 17]: 0.67 ± 0.01 s
T1 Blood [2, 18]: 1.00 ± 0.02 s
T1 Infarct [2, 18]: 0.73 ± 0.01 s
T1 normal [2, 18]: 0.67 ± 0.01 s
T1 Blood [2, 19]: 1.02 ± 0.03 s
T1 Infarct [2, 19]: 0.76 ± 0.02 s
T1 normal [2, 19]: 0.64 ± 0.01 s
T1 Blood [2, 20]: 1.04 ± 0.03 s
T1 Infarct [2, 20]: 0.80 ± 0.01 s
T1 normal [2, 20]: 0.63 ± 0.01 s
T1 Blood [2, 21]: 1.05 ± 0.03 s
T1 Infarct [2, 21]: 0.82 ± 0.02 s
T1 normal [2, 21]: 0.62 ± 0.01 s
T1 Blood [2, 22]: 1.06 ± 0.03 s
T1 Infarct [2, 22]: 0.85 ± 0.03 s
T1 normal [2, 22]: 0.60 ± 0.01 s
T1 Blood [2, 23]: 1.08 ± 0.03 s
T1 Infarct [2, 23]: 0.87 ± 0.02 s
T1 normal [2, 23]: 0.60 ± 0.01 s
T1 Blood [2, 24]: 1.08 ± 0.03 s
T1 Infarct [2, 24]: 0.88 ± 0.02 s
T1 normal [2, 24]: 0.59 ± 0.01 s
T1 Blood [2, 25]: 1.08 ± 0.03 s
T1 Infarct [2, 25]: 0.89 ± 0.03 s
T1 normal [2, 25]: 0.58 ± 0.01 s
T1 Blood [2, 26]: 1.10 ± 0.03 s
T1 Infarct [2, 26]: 0.91 ± 0.03 s
T1 normal [2, 26]: 0.58 ± 0.01 s
T1 Blood [2, 27]: 0.63 ± 0.03 s
T1 Infarct [2, 27]: 0.46 ± 0.02 s
T1 normal [2, 27]: 0.59 ± 0.01 s
T1 Blood [2, 28]: 0.74 ± 0.03 s
T1 Infarct [2, 28]: 0.47 ± 0.02 s
T1 normal [2, 28]: 0.59 ± 0.01 s
T1 Blood [2, 29]: 0.80 ± 0.02 s
T1 Infarct [2, 29]: 0.51 ± 0.02 s
T1 normal [2, 29]: 0.58 ± 0.01 s
T1 Blood [2, 30]: 0.83 ± 0.02 s
T1 Infarct [2, 30]: 0.55 ± 0.03 s
T1 normal [2, 30]: 0.57 ± 0.01 s
T1 Blood [2, 31]: 0.87 ± 0.02 s
T1 Infarct [2, 31]: 0.58 ± 0.03 s
T1 normal [2, 31]: 0.57 ± 0.01 s
T1 Blood [2, 32]: 0.89 ± 0.02 s
T1 Infarct [2, 32]: 0.60 ± 0.03 s
T1 normal [2, 32]: 0.55 ± 0.01 s
T1 Blood [2, 33]: 0.91 ± 0.03 s
T1 Infarct [2, 33]: 0.61 ± 0.03 s
T1 normal [2, 33]: 0.54 ± 0.01 s
T1 Blood [2, 34]: 0.92 ± 0.03 s
T1 Infarct [2, 34]: 0.63 ± 0.03 s
T1 normal [2, 34]: 0.54 ± 0.01 s
T1 Blood [2, 35]: 0.93 ± 0.03 s
T1 Infarct [2, 35]: 0.65 ± 0.03 s
T1 normal [2, 35]: 0.53 ± 0.01 s
T1 Blood [2, 36]: 0.94 ± 0.03 s
T1 Infarct [2, 36]: 0.66 ± 0.03 s
T1 normal [2, 36]: 0.53 ± 0.01 s
T1 Blood [2, 37]: 0.97 ± 0.02 s
T1 Infarct [2, 37]: 0.69 ± 0.03 s
T1 normal [2, 37]: 0.52 ± 0.01 s
T1 Blood [2, 38]: 0.97 ± 0.03 s
T1 Infarct [2, 38]: 0.69 ± 0.03 s
T1 normal [2, 38]: 0.52 ± 0.01 s
slow E2 component ([2]; blood pool clearance): ~0.01 per min
E1, bi-exponential fit of ΔR1 clearance ([2]; dose 25, ROI blood): 0.21 min⁻¹
E2, bi-exponential fit of ΔR1 clearance ([2]; dose 25, ROI blood): 0.011 ± 0.001 min⁻¹
E1, bi-exponential fit of ΔR1 clearance ([2]; dose 25, ROI infarct): 0.15 min⁻¹
E2, bi-exponential fit of ΔR1 clearance ([2]; dose 25, ROI infarct): 0.015 ± 0.001 min⁻¹
intercept, linear fit - increase in normal myocardium ([2]; dose 25, ROI normal): 0.187
slope, linear fit - increase in normal myocardium ([2]; dose 25, ROI normal): 0.0043 min⁻¹
E1, bi-exponential fit of ΔR1 clearance ([2]; dose 50, ROI blood): 0.15 min⁻¹
E2, bi-exponential fit of ΔR1 clearance ([2]; dose 50, ROI blood): 0.009 ± 0.001 min⁻¹
E1, bi-exponential fit of ΔR1 clearance ([2]; dose 50, ROI infarct): 0.058 min⁻¹
E2, bi-exponential fit of ΔR1 clearance ([2]; dose 50, ROI infarct): 0.005 ± 0.003 min⁻¹
intercept, linear fit - increase in normal myocardium ([2]; dose 50, ROI normal): 0.294
slope, linear fit - increase in normal myocardium ([2]; dose 50, ROI normal): 0.0056 min⁻¹
E1, bi-exponential fit of ΔR1 clearance ([2]; dose 100, ROI blood): 0.18 min⁻¹
E2, bi-exponential fit of ΔR1 clearance ([2]; dose 100, ROI blood): 0.011 ± 0.001 min⁻¹
E1, bi-exponential fit of ΔR1 clearance ([2]; dose 100, ROI infarct): 0.11 min⁻¹
E2, bi-exponential fit of ΔR1 clearance ([2]; dose 100, ROI infarct): 0.010 ± 0.003 min⁻¹
intercept, linear fit - increase in normal myocardium ([2]; dose 100, ROI normal): 0.523
slope, linear fit - increase in normal myocardium ([2]; dose 100, ROI normal): 0.0050 min⁻¹
plasma half life ([2]; equivalent to E2 component): ~1.17 h
clearance or accumulation of test agent ([2]; over 60 minutes after injection, 25, 50 and 100 μmole/kg): cleared from both blood and infarcted myocardium but accumulated in uninfarcted myocardium
